According to US9469854B2, “Pharmaceutical composition for treating liver diseases” (Academia Sinica, priority 2014, dated 2016):

What was measured:
miR-21-3p = assay: qRT-PCR microRNA assay in HepG2 cells; assay type: cell-based, human; conditions: HepG2, 40 μM berberine
Description: (§1) The human HepG2 cells and HEK 293T cells used in the following examples were originally obtained from the American Tissue Culture Collection (ATCC, USA). The human HCC HepG2 cell line was cultured in Minimum Essential Medium Eagle (Sigma) supplemented with 10% fetal bovine serum (FBS) (Invitrogen), 2.2 g/L of sodium bicarbonate (Sigma), 0.1 mM of non-essential amino acids (Caisson), 1 mM of sodium pyruvate (Invitrogen), and 10 of ml/L penicillin-streptomycin-amphotericin solution (Biological Industries). Human HEK-293T cells were maintained in high-glucose Dulbecco's modified eagle medium (Invitrogen) supplemented with 10% FBS and 3.7 g/L of sodium bicarbonate (Sigma). Both cell lines were cultured at 37° C. and 5% CO2. A 50 mM stock solution of berberine chloride (Sigma-Aldrich) was prepared in dimethyl sulfoxide (DMSO). Cells were treated with 40 μM of berberine chloride or 0.08% DMSO as the control. For induction of lipid droplets formation in cultured cells, 200 μM of oleic acid (Sigma-Aldrich) was added into the culture medium for 24 h. Total RNA was extracted using a TRIZOL reagent (Invitrogen) according to the manufacturer's protocol. The total RNA quantity was measured using a NanoDrop ND-1000 spectrophotometer (Nanodrop Technologies). The total RNA quality and integrity were assayed using an Agilent 2100 bioanalyzer with an RNA 6000 nano kit (Agilent Technologies). […] The microRNA expression levels were normalized to RNU6B levels.

miR-21-5p = assay: qRT-PCR microRNA assay in HepG2 cells; assay type: cell-based, human; conditions: HepG2, 40 μM berberine
Description: as §1

SPEBF2 = assay: qRT-PCR mRNA expression in primary human hepatocytes; assay type: cell-based; conditions: PHH, 40 μM berberine, 4-8 h
Description: The primary human hepatocytes from Caucasian donors were purchased from Invitrogen and cultured following the manufacturer's instructions. The hepatocytes were thawed and transferred into cryopreserved hepatocytes recovery medium (CM7000, Invitrogen), centrifuging at room temperature, 100×g for 10 min. Then, the hepatocytes were diluted to seeding density with plating medium (CM3000, Invitrogen) and added into collagen I-coated plates (Invitrogen). These plates were incubated at 37° C. for 4-6 hours under 5% CO2 for forming a monolayer. Then, plating medium was replaced by overlay incubation medium (CM4000 and 0.35 mg/mL Geltrex™ Matrix, Invitrogen), and the incubation medium was replaced daily. In the following examples, hepatocytes form 3 to 4 donors were used for experiments.
A 50 mM stock solution of berberine chloride (Sigma-Aldrich) was prepared in dimethyl sulfoxide (DMSO). Cells were treated with 40 μM of berberine chloride or 0.08% DMSO as the control. For induction of lipid droplets formation in cultured cells, 200 μM of oleic acid (Sigma-Aldrich) was added into the culture medium for 24 h.
Total RNA was extracted using a TRIZOL reagent (Invitrogen) according to the manufacturer's protocol. The total RNA quantity was measured using a NanoDrop ND-1000 spectrophotometer (Nanodrop Technologies). […]

3′ UTR of ACACA = assay: Reporter examination of miR-21-3p and ACACA 3′ UTR (technology similar to Example 6); assay type: cell-based, human; conditions: data not shown
Description: (§2) The HEK-293T and HepG2 cells were seeded at a density of 5×10^4 cells per well in a 24-well culture plate the day before transfection. The HEK-293T and HepG2 cells were tri-transfected with (1) any one of the above-mentioned pMIR-REPORT-3′ UTR construction (300 ng), (2) the control Renilla luciferase reporter plasmid pRL-TK from Promega (10 ng), and (3) 50 nM of hsa-miR-21-3p mimic or negative-control mimic by using the Lipofectamine 2000 transfection reagent (Invitrogen) according to the manufacturer's instructions. Luciferase assays were performed after transfection for 48 h by using the Dual Luciferase reporter assay kit (Promega) and the Paradigm detection platform (Beckman) according to the manufacturer's protocol. The firefly luciferase activity was normalized relative to the Renilla luciferase activity.

exon 23 of ACACB = assay: Reporter examination of miR-21-3p and ACACB (technology similar to Example 6); assay type: cell-based, human
Description: as §2

intracellular SAM = assay: Measurement of intracellular SAM concentration in HepG2 cells; assay type: cell-based, human
Description: […] The intracellular SAM of 5×10^4 HepG2 cells pellet was resuspended in […] of an extraction solution (0.2% perchloric acid plus 0.08% (v/v) 2-mercaptoethanol in ddH2O). Cells were incubated at room temperature for 1 h and vortexed every 5 min. The suspension was centrifuged at 4° C. at 10000×g for 5 min, and then the supernatant was collected. SAM levels in the supernatants were quantified using the Bridge-It SAM fluorescence assay kit (Mediomics) and detected using SpectraMax plate reader (Molecular Devices) according to the manufacturer's instructions.

| Compound | miR-21-3p level increase (qRT-PCR) (miR-21-3p; 1 h vs untreated control) | miR-21-3p level increase (qRT-PCR) (miR-21-3p; 2 h (peak) vs untreated control) | miR-21-3p level increase (qRT-PCR) (miR-21-3p; 8 h vs untreated control) | miR-21-5p level increase (qRT-PCR) (miR-21-5p; 2 h) | miR-21-5p expression change (qRT-PCR) (miR-21-5p; 4 h and 8 h) | mRNA expression of SPEBF2 (SPEBF2) | suppression of ACACA expression via 3′ UTR (3′ UTR of ACACA) | suppression of ACACB expression by binding exon 23 (exon 23 of ACACB) | intracellular SAM contents increase (intracellular SAM; HepG2, mimic transfection 48 h vs NC mimic) | intracellular SAM contents increase (intracellular SAM; HepG2, mimic transfection 72 h vs NC mimic) |
| --- | --- | --- | --- | --- | --- | --- | --- | --- | --- | --- |
| COc1ccc2cc3[n+](cc2c1OC)CCc1cc2c(cc1-3)OCO2 [berberine] | 2.1 fold | 3.5 fold | 2.8 fold | 2 fold | no significant differences | decreases | – | – | – | – |
| hsa-miR-21-3p (CAACACCAGUCGAUGGGCUGU; listed as RNA, chemistry not given here) [miR-21-3p mimic] | – | – | – | – | – | – | suppressed the expression of ACACA, but not though its 3′ UTR sequence | 1.4 fold | 1.6 fold | 3.0 fold |
